Assay results: ChEMBL document CHEMBL1156085, “Design of novel alpha7-subtype-preferring nicotinic acetylcholine receptor agonists: application of docking and MM-PBSA computational approaches, synthetic and pharmacological studies” (Bioorg Med Chem Lett, 2009)

Legend:
[1] = molecular target: T1, Neuronal acetylcholine receptor subunit alpha-7 (Rattus norvegicus, UniProt Q05941); assay: Displacement of [125I]alpha-bungarotoxin from rat alpha7 nAChR
[2] = molecular target: Neuronal acetylcholine receptor; alpha4/beta2 (Rattus norvegicus, UniProt P09483+P12390); assay: Displacement of [3H]epibatidine from rat alpha4beta2 nAChR; assay type: protein-complex assay
[3] = molecular target: T1, Neuronal acetylcholine receptor subunit alpha-7; assay: Displacement of [3H]MLA from rat alpha7 nAChR

T1 sequence (Q05941 whole entry): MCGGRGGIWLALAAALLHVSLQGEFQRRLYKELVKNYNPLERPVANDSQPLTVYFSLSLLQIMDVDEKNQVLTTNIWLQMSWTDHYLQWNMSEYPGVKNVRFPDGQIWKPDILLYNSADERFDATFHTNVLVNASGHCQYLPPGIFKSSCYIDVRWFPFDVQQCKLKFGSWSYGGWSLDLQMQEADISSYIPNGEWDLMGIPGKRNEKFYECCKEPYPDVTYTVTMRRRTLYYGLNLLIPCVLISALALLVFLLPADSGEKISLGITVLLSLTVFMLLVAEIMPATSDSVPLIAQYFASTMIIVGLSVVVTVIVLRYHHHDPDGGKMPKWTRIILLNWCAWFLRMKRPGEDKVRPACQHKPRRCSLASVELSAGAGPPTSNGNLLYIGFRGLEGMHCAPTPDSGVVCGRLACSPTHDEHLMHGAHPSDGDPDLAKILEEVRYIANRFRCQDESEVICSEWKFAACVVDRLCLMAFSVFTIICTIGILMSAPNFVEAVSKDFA
Neuronal acetylcholine receptor; alpha4/beta2, sequence (P09483 whole entry): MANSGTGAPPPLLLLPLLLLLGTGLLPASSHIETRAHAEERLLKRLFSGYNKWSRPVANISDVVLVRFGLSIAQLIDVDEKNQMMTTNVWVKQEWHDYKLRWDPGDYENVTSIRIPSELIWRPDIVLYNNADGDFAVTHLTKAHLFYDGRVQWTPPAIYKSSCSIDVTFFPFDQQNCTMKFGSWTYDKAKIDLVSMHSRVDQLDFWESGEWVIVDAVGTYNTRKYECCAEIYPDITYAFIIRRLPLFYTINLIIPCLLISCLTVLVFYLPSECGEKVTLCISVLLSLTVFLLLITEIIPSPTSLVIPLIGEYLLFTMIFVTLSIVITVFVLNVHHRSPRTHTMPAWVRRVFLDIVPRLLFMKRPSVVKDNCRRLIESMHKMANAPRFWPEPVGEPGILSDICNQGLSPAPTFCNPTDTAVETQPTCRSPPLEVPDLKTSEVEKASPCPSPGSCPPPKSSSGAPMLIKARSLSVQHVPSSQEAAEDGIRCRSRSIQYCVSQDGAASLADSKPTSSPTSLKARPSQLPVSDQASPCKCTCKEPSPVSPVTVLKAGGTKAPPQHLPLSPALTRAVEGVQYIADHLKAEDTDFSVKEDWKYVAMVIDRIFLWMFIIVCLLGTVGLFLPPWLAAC
Neuronal acetylcholine receptor; alpha4/beta2, sequence (P12390 whole entry): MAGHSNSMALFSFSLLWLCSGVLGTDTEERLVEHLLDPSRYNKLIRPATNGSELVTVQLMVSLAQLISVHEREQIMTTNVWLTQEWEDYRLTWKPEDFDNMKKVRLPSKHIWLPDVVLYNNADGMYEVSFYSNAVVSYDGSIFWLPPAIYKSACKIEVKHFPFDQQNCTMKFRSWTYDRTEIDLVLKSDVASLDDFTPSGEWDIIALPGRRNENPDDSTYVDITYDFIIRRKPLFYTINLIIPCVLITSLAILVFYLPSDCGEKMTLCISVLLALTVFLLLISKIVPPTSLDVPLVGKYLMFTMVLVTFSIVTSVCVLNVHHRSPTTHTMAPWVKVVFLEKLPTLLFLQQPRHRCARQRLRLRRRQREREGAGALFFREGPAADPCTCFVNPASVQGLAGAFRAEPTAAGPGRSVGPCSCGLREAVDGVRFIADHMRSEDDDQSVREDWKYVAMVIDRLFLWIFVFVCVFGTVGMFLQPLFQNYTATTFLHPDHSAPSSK

Row | Compound | Ki [1] [µM] | Ki [2] [µM] | Ki [3] [µM]
1 | C1=C(c2ccc(N3CCOCC3)nc2)C2CCN1CC2 | 0.4 | 3.1 | 
2 | C[N+]12CCC(CC1)C(c1ccc(N3CCOCC3)nc1)C2 (stereo not drawn) | 6.1 | 25 | 
3 | C1=C(c2cccnc2)C2CCN1CC2 | 0.14 | 0.11 | 0.085
4 | C1=C(c2ccc(N3CCOCC3)nc2)C2CCC1N2 (stereo not drawn) | 33 | 12 | 
5 | C[N+]12C=C(c3ccc(N4CCOCC4)nc3)C(CC1)CC2 | 5.6 | 22 | 
6 | c1cc(N2CCOCC2)ncc1C1CN2CCC1CC2 (stereo not drawn) | 0.35 | 21 | 
